Where two headings read alike, the source gives them in different places. Ends that are not written are not given here.
Assay: PK after single intravenous injection of Peptide 1 in male rats
Parameters: species or system male Wistar (CRL: WI(Han)) rats
Conditions: rat, in vivo; for clearance / half-life / Vd: iv
Experimental: Peptide 1 in blood samples collected from animals used in the studies (rat and dog) has been measured by an LC-MS/MS method. Analysis of samples collected in the pharmacokinetic study in rats was performed prior to validation of the method. Prior to analysis of samples from the GLP toxicology studies, the method was validated according to GLP to ensure that it is selective, accurate, reproducible, and able to produce reliable results. The method was validated over the range from 0.075 to 25 μg/mL Peptide 1.
The objective of the study was to assess the pharmacokinetic profile of Peptide 1 when administered once by intravenous injection to male Wistar (CRL: WI(Han)) rats at 0.1, 1.0 and 10.0 mg/kg. The number of rats per group was respectively 6, 6 and 8. Blood samples were collected from 3 animals per group at 2, 5, 10, 20, 40 and 60 minutes after dosing; for the animals receiving 10.0 mg/kg, additional samples were taken from 2 animals at 90 and 120 minutes after dosing. The pharmacokinetics were characterised using mean plasma concentration vs. time data. The pharmacokinetic parameters were estimated using Phoenix WinNonlin Version 6.3 pharmacokinetic software.
[…] 26 plasma samples (samples in Group 1 (0.1 mg/kg) obtained 2 minutes post dosing, in Group 2 (1 mg/kg) 2 to 10 minutes post dosing and in Group 3 (10 mg/kg) 2 to 40 minutes post dosing) had concentrations of Peptide 1 above the upper limit of quantification for the bioanalytical method. As a consequence, plasma concentration of Peptide 1 was extrapolated. Plasma samples obtained 60 minutes post dosing in Group 1 had plasma concentration of Peptide 1 below the limit of quantification.

[1] = single IV 0.1 mg/kg, initial elimination phase
[2] = single IV 1.0 mg/kg, initial elimination phase
[3] = single IV 10 mg/kg, initial elimination phase

Substance: AMVSEFLKQAWFIENEEQEYVQTLKSSKGGPGSAVSPYPTFNPSSDV-NH2 [Peptide 1]
- clearance (0.1 mg/kg, single IV 0.1 mg/kg, initial elimination phase, read-out: CL): 10 mL/min/kg
- half-life (0.1 mg/kg, single IV 0.1 mg/kg, initial elimination phase, read-out: T½): 3.49 min
- Vd (0.1 mg/kg, single IV 0.1 mg/kg, initial elimination phase, read-out: Vz): 0.0505 L/kg
- clearance (0.1 mg/kg, single IV 0.1 mg/kg, terminal elimination phase, read-out: CL): 9.66 mL/min/kg
- half-life (0.1 mg/kg, single IV 0.1 mg/kg, terminal elimination phase, read-out: T½): 18.8 min
- Vd (0.1 mg/kg, single IV 0.1 mg/kg, terminal elimination phase, read-out: Vz): 0.261 L/kg
- clearance (1 mg/kg, single IV 1.0 mg/kg, initial elimination phase, read-out: CL): 8.08 mL/min/kg
- half-life (1 mg/kg, single IV 1.0 mg/kg, initial elimination phase, read-out: T½): 3.34 min
- Vd (1 mg/kg, single IV 1.0 mg/kg, initial elimination phase, read-out: Vz): 0.0389 L/kg
- clearance (1 mg/kg, single IV 1.0 mg/kg, terminal elimination phase, read-out: CL): 8.05 mL/min/kg
- half-life (1 mg/kg, single IV 1.0 mg/kg, terminal elimination phase, read-out: T½): 10 min
- Vd (1 mg/kg, single IV 1.0 mg/kg, terminal elimination phase, read-out: Vz): 0.116 L/kg
- clearance (10 mg/kg, single IV 10 mg/kg, initial elimination phase, read-out: CL): 11.1 mL/min/kg
- half-life (10 mg/kg, single IV 10 mg/kg, initial elimination phase, read-out: T½): 7.64 min
- Vd (10 mg/kg, single IV 10 mg/kg, initial elimination phase, read-out: Vz): 0.122 L/kg
- clearance (10 mg/kg, single IV 10 mg/kg, terminal elimination phase, read-out: CL): 11.1 mL/min/kg
- half-life (10 mg/kg, single IV 10 mg/kg, terminal elimination phase, read-out: T½): 10.2 min
- Vd (10 mg/kg, single IV 10 mg/kg, terminal elimination phase, read-out: Vz): 0.162 L/kg
- clearance (single IV, both phases, range over 0.1-10 mg/kg, read-out: clearance): 8 to 11 mL/min/kg
- half-life (single IV, initial phase, range over 0.1-10 mg/kg, read-out: half-life): 3 to 8 min
- Vd (single IV, initial phase, range over 0.1-10 mg/kg, read-out: volume of distribution): 0.039 to 0.122 L/kg
- half-life (single IV, terminal elimination phase, range over 0.1-10 mg/kg, read-out: half-life): 10 to 19 min
- Vd (single IV, terminal phase, range over 0.1-10 mg/kg, read-out: volume of distribution): 0.116 to 0.261 L/kg
- AUC(0-t) [1]: 165 ng·h/mL
- C0 [1]: 1790 ng/mL
- AUC(0-inf) (single IV 0.1 mg/kg, terminal elimination phase): 173 ng·h/mL
- AUC(0-t) [2]: 2070 ng·h/mL
- C0 [2]: 32500 ng/mL
- AUC(0-inf) (single IV 1.0 mg/kg, terminal elimination phase): 2070 ng·h/mL
- AUC(0-t) [3]: 14800 ng·h/mL
- C0 [3]: 68900 ng/mL
- AUC(0-inf) (single IV 10 mg/kg, terminal elimination phase): 15000 ng·h/mL

From patent publication US20250345392A1, “ANNEXIN A1 LIQUID PHARMACEUTICAL COMPOSITION” (ResoTher Pharma A/S, priority 2022, published 2025)
